Measurements as given in the supplement of paper PMC4862054.

Legend:
Settings in all cases: 72 h
CAL-51 [1] = test system: CAL-51
Procedure, shortened: (§1)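 In this assay, breast cancer cell lines spent 72 h with compound at 5 concentrations in 10-fold steps over a compound-specific 10,000-fold range. The first readout was cell death by CellTox Green fluorescence, and the second was viability by CellTiter-Glo luminescence, each normalised per plate to 0.1 % DMSO and a positive kill control. EC50 came from the dose-response curves, censored at the top concentration.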

CAL-85-1 [2] = test system: CAL-85-1
Procedure, shortened: (§2)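 Each 384-well plate was pre-loaded with compound dissolved in 5 µl medium, received breast cancer cells in 20 µl suspension, and was incubated 72 h. A 2.5 µl addition of CellTiter-Blue for 2 h at 37 °C was followed by a fluorescence read at 560/590 nm. Data were normalised per plate to vehicle and a positive kill control and checked by Z'-factor. EC50 was fitted from the percent-inhibition dose-response curve, censored at the highest concentration, excluding rows with a drug sensitivity score of zero.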

DU-4475 [3] = test system: DU-4475
Procedure, shortened: as §2

HDQ-P1 [4] = test system: HDQ-P1
Procedure, shortened: as §2

MDA-MB-453 [5] = test system: MDA-MB-453
Procedure, shortened: as §2

BT-474 [6] = test system: BT-474
Procedure, shortened: as §2

HCC1143 [7] = test system: HCC1143
Procedure, shortened: as §2

HCC1599 [8] = test system: HCC1599
Procedure, shortened: as §2

Hs578T [9] = test system: Hs578T
Procedure, shortened: as §2

MDA-MB-231 [10] = test system: MDA-MB-231
Procedure, shortened: as §2

MDA-MB-468 = test system: MDA-MB-468
Procedure, shortened: as §2

MFM-223 [11] = test system: MFM-223
Procedure, shortened: as §2

BT-474 [12] = test system: BT-474; remark: listed apart in the source
Procedure, shortened: as §1

CAL-85-1 [13] = test system: CAL-85-1; remark: listed apart in the source
Procedure, shortened: as §1

DU-4475 [14] = test system: DU-4475; remark: listed apart in the source
Procedure, shortened: as §1

HCC1599 [15] = test system: HCC1599; remark: listed apart in the source
Procedure, shortened: as §1

HCC1937 = test system: HCC1937
Procedure, shortened: as §1

HDQ-P1 [16] = test system: HDQ-P1; remark: listed apart in the source
Procedure, shortened: as §1

Hs578T [17] = test system: Hs578T; remark: listed apart in the source
Procedure, shortened: as §1

MDA-MB-231 [18] = test system: MDA-MB-231; remark: listed apart in the source
Procedure, shortened: as §1

MFM-223 [19] = test system: MFM-223; remark: listed apart in the source
Procedure, shortened: as §1

CAL-120 = test system: CAL-120
Description: (§3)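 Drug sensitivity and resistance testing (DSRT) of breast cancer cell lines in 384-well plates, 5 concentrations in 10-fold dilutions over a compound-specific 10,000-fold range. After 72 h, cytotoxicity was read by CellTox Green fluorescence and viability by CellTiter-Glo luminescence (multiplexed), normalised to DMSO and benzethonium chloride controls. EC50 is the inflection point of the fitted dose-response curve (bottom asymptote free, so it can be relative for partial curves) and is censored at the highest tested concentration. Rows with DSS 0 (no meaningful response) were excluded.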

BT-549 = test system: BT-549
Procedure, shortened: as §1

CAL-148 [20] = test system: CAL-148
Procedure, shortened: as §1

HCC1143 [21] = test system: HCC1143; remark: listed apart in the source
Procedure, shortened: as §1

MCF-10A [22] = test system: MCF-10A
Procedure, shortened: as §1

MDA-MB-436 = test system: MDA-MB-436
Procedure, shortened: as §1

MDA-MB-453 [23] = test system: MDA-MB-453; remark: listed apart in the source
Procedure, shortened: as §1

SK-BR-3 = test system: SK-BR-3
Procedure, shortened: as §1

CAL-85-1 [24] = test system: CAL-85-1; remark: listed apart in the source
Description: as §3

BT-474 [25] = test system: BT-474; remark: listed apart in the source
Description: as §3

CAL-148 [26] = test system: CAL-148; remark: listed apart in the source
Description: as §3

CAL-51 [27] = test system: CAL-51; remark: listed apart in the source
Description: as §3

DU-4475 [28] = test system: DU-4475; remark: listed apart in the source
Description: as §3

HCC1143 [29] = test system: HCC1143; remark: listed apart in the source
Description: as §3

HDQ-P1 [30] = test system: HDQ-P1; remark: listed apart in the source
Description: as §3

Hs578T [31] = test system: Hs578T; remark: listed apart in the source
Description: as §3

MCF-10A [32] = test system: MCF-10A; remark: listed apart in the source
Description: as §3

MDA-MB-231 [33] = test system: MDA-MB-231; remark: listed apart in the source
Description: as §3

SMILES	EC50, CellTiter-Glo (CAL-51 [1]) [nM]	EC50, CellTiter-Blue viability (CAL-85-1 [2]) [nM]	EC50, CellTiter-Blue viability (DU-4475 [3]) [nM]	EC50, CellTiter-Blue viability (HDQ-P1 [4]) [nM]	EC50, CellTiter-Blue viability (MDA-MB-453 [5]) [nM]	EC50, CellTiter-Blue viability (BT-474 [6]) [nM]	EC50, CellTiter-Blue viability (HCC1143 [7]) [nM]	EC50, CellTiter-Blue viability (HCC1599 [8]) [nM]	EC50, CellTiter-Blue viability (Hs578T [9]) [nM]	EC50, CellTiter-Blue viability (MDA-MB-231 [10]) [nM]	EC50, CellTiter-Blue viability (MDA-MB-468) [nM]	EC50, CellTiter-Blue viability (MFM-223 [11]) [nM]	EC50, CellTiter-Glo (BT-474 [12]) [µM]	EC50, CellTiter-Glo (CAL-85-1 [13]) [µM]	EC50, CellTiter-Glo (DU-4475 [14]) [nM]	EC50, CellTiter-Glo (HCC1937) [nM]	EC50, CellTiter-Glo (HDQ-P1 [16]) [nM]	EC50, CellTiter-Glo (Hs578T [17]) [nM]	EC50, CellTiter-Glo (MDA-MB-231 [18]) [nM]	EC50, CellTiter-Glo (MFM-223 [19]) [nM]	other results
Cc1ccc(F)c(NC(=O)Nc2ccc(-c3cccc4[nH]nc(N)c34)cc2)c1 [Linifanib]	411	–	–	–	–	–	–	–	–	–	–	–	–	–	–	–	–	–	–	–	–
COc1cc(Nc2ncc3c(n2)-c2ccc(Cl)cc2C(c2c(F)cccc2OC)=NC3)ccc1C(=O)O [MLN8237]	–	29.6	57.5	51	11.1	1160	68.7	2050	41.8	502	76.2	388	–	–	–	–	–	–	–	–	–
S=c1[nH]cnc2nc[nH]c12 [Mercaptopurine]	–	–	–	–	–	–	–	–	–	–	387	–	3.92	4.41	1820	833	569	985	906	–	EC50, CellTiter-Glo (HCC1599 [15]): 3820 nM
CCN1CCN(c2ccc(Nc3cc(N(C)C(=O)Nc4c(Cl)c(OC)cc(OC)c4Cl)ncn3)cc2)CC1 [NVP-BGJ398]	–	–	–	–	–	–	–	–	–	–	–	–	–	–	–	–	–	> 1000	–	50.5	EC50, CellTox Green (CAL-120): > 1000 nM
COc1cccc2cc(-c3nc([C@H]4CC[C@H](C(=O)O)CC4)n4ncnc(N)c34)[nH]c12 [OSI-027]	2220	1180	4630	255	460	740	1150	1210	1280	1670	1960	275	2.92	3.8	1480	8710	938	6720	8210	3170	EC50, CellTiter-Glo (BT-549): 2590 nM; EC50, CellTiter-Glo (CAL-148 [20]): 7.16 µM; EC50, CellTiter-Glo (HCC1143 [21]): 1880 nM; EC50, CellTiter-Glo (MCF-10A [22]): 4810 nM; EC50, CellTiter-Glo (MDA-MB-436): 8.29 µM; EC50, CellTiter-Glo (MDA-MB-453 [23]): 2920 nM; EC50, CellTiter-Glo (SK-BR-3): 594 nM; EC50, CellTox Green (CAL-85-1 [24]): > 10000 nM
N#CC[C@H](C1CCCC1)n1cc(-c2ncnc3[nH]ccc23)cn1 [Ruxolitinib]	–	–	–	–	–	–	–	–	–	–	–	–	> 10	–	–	–	–	–	–	> 10000	–
C=CC[C@@H]1/C=C(\C)C[C@H](C)C[C@H](OC)[C@H]2O[C@@](O)(C(=O)C(=O)N3CCCC[C@H]3C(=O)O[C@H](/C(C)=C/[C@@H]3CC[C@@H](O)[C@H](OC)C3)[C@H](C)[C@@H](O)CC1=O)[C@H](C)C[C@@H]2OC [Tacrolimus]	–	–	–	–	–	–	–	–	–	–	–	–	> 10	–	–	–	–	–	–	–	–
C=CCNC1=C2C[C@@H](C)C[C@H](OC)[C@H](O)[C@@H](C)/C=C(\C)[C@H](OC(N)=O)[C@@H](OC)/C=C\C=C(/C)C(=O)NC(=CC1=O)C2=O [Tanespimycin]	78.2	194	48.4	82.7	15.5	48.4	8.84	84.3	36.9	722	–	18.4	0.324	0.404	208	113	103	97.9	371	64.1	EC50, CellTiter-Glo (BT-549): 52.9 nM; EC50, CellTiter-Glo (CAL-148 [20]): 0.178 µM; EC50, CellTiter-Glo (HCC1143 [21]): 63 nM; EC50, CellTiter-Glo (HCC1599 [15]): 266 nM; EC50, CellTiter-Glo (MCF-10A [22]): 87.8 nM; EC50, CellTiter-Glo (MDA-MB-436): 0.028 µM; EC50, CellTiter-Glo (MDA-MB-453 [23]): 23.4 nM; EC50, CellTiter-Glo (SK-BR-3): 46.3 nM; EC50, CellTox Green (BT-474 [25]): 696 nM; EC50, CellTox Green (CAL-148 [26]): 112 nM; EC50, CellTox Green (CAL-51 [27]): 122 nM; EC50, CellTox Green (CAL-85-1 [24]): 46.1 nM; EC50, CellTox Green (DU-4475 [28]): 179 nM; EC50, CellTox Green (HCC1143 [29]): > 10 µM; EC50, CellTox Green (HDQ-P1 [30]): 112 nM; EC50, CellTox Green (Hs578T [31]): 4.34 µM; EC50, CellTox Green (MCF-10A [32]): 105 nM; EC50, CellTox Green (MDA-MB-231 [33]): 24.8 nM
